Assay results taken from patent publication US12168673B2 (Mitopower, Inc., priority 2022, dated 2024).
Where two headings read alike, the source gives them in different places.

Columns and labels:
[1] = PK study in rats (plasma); assay type: in vivo; conditions: rats; for half-life: plasma
[2] = system: cisplatin induced acute kidney injury (AKI) mouse model; assay: Cisplatin induced kidney injury model in mice; assay type: in vivo, BALB/c female mice
Protocol: The study was performed using protocols approved by the Institutional Animal Ethics Committee (IAEC) based on CPCSEA guidelines for animal care and use. BALB/c female mice of 6-8 weeks age were divided into 5 groups with each group containing 6 members. Animal room environment were monitored for temperature and relative humidity twice a day. The temperature range was 22° C.±3° C. and the humidity range was 30-70%, although the upper range for humidity may be exceeded during room cleaning. Animals were housed in IVC systems and provided with cycles of 12 hours of light and 12 hours of darkness through the study. SDS Feed (M/s. SDS diets services) and autoclaved drinking water was provided ad libitum.
The vehicle for cisplatin was 0.9% saline while the vehicle for compound 100 was PBS at pH 6. The compound 100 formulations were prepared just prior to doing each time. The study was performed in 5 groups.
Animals were acclimatized prior to the study. Pretreatment with compound 100 was administered for 3 days before cisplatin dosing. Animals were weighed and administered vehicle in group 1 and cisplatin was administered at a single dose of 25 mg/kg to groups 2, 3, 4 and 5 intraperitonially on day-3 of the study. The oral dose groups (groups 3-5) were dosed with compound 100 twice daily for 6 days (3 days pre-dose and 3 days post-dose cisplatin).
Blood samples were collected at end of the study (12 h, post last dose terminal sampling, cardiac puncture) in 2 ml Eppendorf tubes, and serum was separated and stored at −20° C. for clinical chemistry analysis.
All animals survived and were sacrificed at end of the study (12 hours post last test compound dose) with an overdose of CO2. […] Serum creatinine and blood urea nitrogen (BUN) was determined using a clinical chemistry analyzer on the final day of blood collection and the results are graphically illustrated for groups 1-5 in FIG. 13 and FIG. 14, respectively.

[3] = Long term solid stability at −15° C. (purity by UPLC); assay type: physicochemical; conditions: for Purity % by UP LC: solid state, −15° C. (freezer)
Protocol: The compound from this vial was assessed for purity by UPLC at two different timepoints: Day 0 and Day 93 (3 months).

[4] = Distribution in kidney and liver tissue after 24 hrs in rats; conditions: compared with nicotinic acid
human hepatocytes = assay: Human hepatocyte clearance; assay type: in vitro ADME
In short: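 Cryopreserved human hepatocytes at a 2 million cell working stock mixed 1:1 with 2 μM compound working stock at 37 °C, in duplicate. Samples quenched in acetonitrile with internal standard at 0, 15, 30, 60 and 90 min, then analysed by LC-MS/MS.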

[5] = Human plasma protein binding (RED dialysis); conditions: human, plasma, human plasma, 10 μM, 5 hours dialysis
Protocol: The test compounds were weighed and prepared as 10 mM stocks in 100% DMSO. 10 μM is the final test concentration for all compounds.
The samples were prepared by spiking test compound(s) in plasma at 10 μM final concentration. 200 μL of plasma containing the test compound was added into the donor well (RED Chamber) of the insert. Simultaneously 350 μL of dialysis buffer (1×PBS) was added into the receiver well (white chamber). Two measurements were made for each test compound. The plate was covered with a sealer and incubated at 37° C. degrees on an orbital shaker at 500 rpm for 5 hours.
After incubation, 25 μl of plasma (RED chamber) and 25 μl of buffer (white chamber) samples were separately collected into separate centrifugation tubes. Plasma and buffer samples were precipitated with 200 μL of 100% acetonitrile containing internal standards. 25 μl of T0 (T Zero) plasma samples (samples before 5 hours incubation) were collected (To samples were processed immediately after the preparation of plasma working stock solution. These samples serve as a measure for calculating the percentage recovery of the test compound and precipitated using 100% acetonitrile containing internal standards). The samples were vortexed at 1000 rpm for 5 min and centrifuged at 4000 rpm for 10 min. The supernatant was diluted 2-fold with water and injected into LC-MS/MS.
The % of Plasma bound/unbound fraction was calculated by the following equation: % Unbound or % free=100*(Fc/Tc); % Recovery=100 (Fc+Tc)/[…] where Tc=Total compound concentration as determined by the calculated concentration on the plasma side of the membrane (concentration in plasma chamber), Fc=Free compound concentration as determined by the calculated concentration on the buffer side of the membrane (concentration in buffer chamber) and T0=Total compound concentration as determined before dialysis.

[6] = rat, Group 2: compound 100 83 mg/kg IV, analyte compound 100 in plasma
[7] = mice, 50, 250 and 500 mg/kg PO twice daily for 6 days, cisplatin 25 mg/kg IP, p<0.05

Compound `O=C(OC1O[C@H](CO)[C@@H](O)[C@H]1O)c1cccnc1` (stereo partly drawn) [Compound 100, (3R, 4S, 5R)-3,4-dihydroxy-5-(hydroxymethyl) tetrahydrofuran-2-yl nicotinate] has a half-life ([1]; rat, iv, 83 mg/kg, Group 2: compound 100 83 mg/kg IV, analyte compound 100 in plasma, read-out: T1/2 (converted)) of 1.01 ± 0.22 h, a half-life ([1]; rat, iv, 83 mg/kg, delivered by IV, read-out: T1/2 of degradation in rat plasma (converted)) of 1 h and a half-life ([1]; rat, po, 415 mg/kg, oral, said to be consistent with hepatocyte stability in vitro, read-out: T1/2 following oral administration) of 5 to 6 h. The Cmax [1, 6] was 188 ± 97.2 µM, the Tmax [1, 6] was 8.34 ± 5.76 min and the clearance [1, 6] was 37.7 mL/min/kg. For the same compound, the AUC(0-t) ([1]; rat, Group 2: compound 100 83 mg/kg IV, analyte compound 100 in plasma, read-out: AUC0-1) was 148 ± 34 µM·h, the Vd ([1]; rat, Group 2: compound 100 83 mg/kg IV, analyte compound 100 in plasma, read-out: Vss) was 3.4 ± 1.62 L/kg and the “in vivo pharmacology compared with nicotinic acid (conclusion)” value [1] was “superior in vivo pharmacology than nicotinic acid with a longer half-life, lower maximal concentration (C), better bioavailability and has a depot effect in the kidney and liver”. The “IV pharmacokinetics profile (in words)” value ([1]; IV) was “biphasic rapid distribution followed by elimination”, the “BUN compared to group 2 (cisplatin only)” value [2, 7] was “significant reduction” and the “serum creatinine compared to group 2 (cisplatin only)” value [2, 7] was “significant reduction”. The “nephroprotection (conclusion)” value ([2]; mice, all three oral doses) was “nephroprotection”, the “Purity % by UP LC” value ([3]; Day 0) was 98.92% and the “Purity % by UP LC” value ([3]; Day 93) was 99.62%. The “solid state stability (in words)” value ([3]; stored at −15° C. for up to three months) was “stable” and the “delivery of nicotinic acid into the tissues” value [4] was “more efficiently than nicotinic acid”.

With `COC(=O)[C@@H](C)NP(=O)(OC[C@H]1OC(OC(=O)c2cccnc2)[C@H](O)[C@@H]1O)Oc1ccccc1` (stereo partly drawn) [Compound 101, (3R, 4S, 5R)-3,4-dihydroxy-5-(((((1-methoxy-1-oxopropan-2-yl)amino)(phenoxy)phosphoryl)oxy)methyl)tetrahydrofuran-2-yl nicotinate] the “Remarks (clearance class)” value (human hepatocytes) was “high clearance and High”, the fraction unbound at 5 h, 10 μM ([5]; % Bound in plasma) was 0.306 and the fraction unbound at 5 h, 10 μM ([5]; % Unbound in plasma) was 0.306. The fraction unbound at 5 h, 10 μM ([5]; Fraction unbound) was 0.31.
